The values that follow come from patent US10414774B2, “Compound useful for altering the levels of bile acids for the treatment of diabetes and cardiometabolc disease” (Merck Sharp & Dohme Corp., priority 2016, dated 2019).

Molecules are shown by their SMILES.

The experiment addresses T1, Human CYP8B1 (Homo sapiens, UniProt Q9UNU6).
T1 sequence (Q9UNU6 1-501): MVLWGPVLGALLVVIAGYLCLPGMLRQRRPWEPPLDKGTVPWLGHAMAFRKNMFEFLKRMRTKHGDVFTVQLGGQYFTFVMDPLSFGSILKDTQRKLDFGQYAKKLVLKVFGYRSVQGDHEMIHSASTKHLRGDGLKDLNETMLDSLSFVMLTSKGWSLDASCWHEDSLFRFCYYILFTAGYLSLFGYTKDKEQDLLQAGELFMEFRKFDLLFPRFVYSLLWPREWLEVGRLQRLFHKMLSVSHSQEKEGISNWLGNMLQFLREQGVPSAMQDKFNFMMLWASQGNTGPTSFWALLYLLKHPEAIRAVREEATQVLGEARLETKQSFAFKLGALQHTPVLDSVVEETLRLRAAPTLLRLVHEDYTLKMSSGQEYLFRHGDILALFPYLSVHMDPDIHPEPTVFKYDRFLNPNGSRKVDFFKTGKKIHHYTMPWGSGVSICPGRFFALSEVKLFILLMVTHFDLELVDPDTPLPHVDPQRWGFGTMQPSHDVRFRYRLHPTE
The experiment can be described thus: Human CYP8B1 Liver Microsome Assay. As to conditions: Human CYP8B1 IC50, human liver microsomes; substrate 7a-hydroxy-4-cholesten-3-one, NADPH; RapidFire MS detection of 7α,12α-dihydroxy-4-cholesten-3-one.
`C[C@@H]1CN(c2c(C#N)cnc3cc(-c4ncco4)ccc23)CC[C@@H]1C(=O)N1CCn2c(nnc2C(F)(F)F)C1` [Example 89, 4-((3S,4S)-3-methyl-4-(3-(trifluoromethyl)-5,6,7,8-tetrahydro-[1,2,4]triazolo[4,3-a]pyrazine-7-carbonyl)piperidin-1-yl)-7-(oxazol-2-yl)quinoline-3-carbonitrile]: the IC50 – broadly, the midpoint of a concentration-inhibition curve – was determined as 0.4 nM.

Compound `C[C@@H]1CN(c2c(C#N)cnc3cc(F)c(F)cc23)CC[C@@H]1C(=O)N1CCn2c(nnc2C(F)(F)F)C1` [Example 25, 6,7-difluoro-4-[(3S,4S)-3-methyl-4-{[3-(trifluoromethyl)-5,6-dihydro[1,2,4]triazolo[4,3-a]pyrazin-7(8H)-yl]carbonyl}piperidin-1-yl]quinoline-3-carbonitrile] registered an IC50 of 0.36 nM.

Compound `C[C@@H]1CN(c2c(C#N)cnc3cc(C(F)F)ccc23)CC[C@@H]1C(=O)N1CCn2c(nnc2C(F)(F)F)C1` [Example 23, 7-(difluoromethyl)-4-((3S,4S)-3-methyl-4-(3-(trifluoromethyl)-5,6,7,8-tetrahydro-[1,2,4]trizolo[4,3-a]pyrazine-7-carbonyl)piperidin-1-yl)quinolone-3-carbonitrile] displayed an IC50 of 0.5 nM.

In turn, `N#Cc1cnc2ccc(Cl)cc2c1N1CC[C@@]2(C(=O)N3CCn4c(nnc4C(F)(F)F)C3)C[C@H]2C1` (single isomer, unassigned) [Example 81b] had an IC50 of 1930 nM.

Regarding `CC1CN(c2c(C#N)cnc3ccc(Cl)cc23)CCC1C(=O)N1CCn2c(nnc2C(F)(F)F)C1` (stereo not shown) [Example 116, 6-chloro-4-(3-methyl-4-(3-(trifluoromethyl)-5,6,7,8-tetrahydro-[1,2,4]triazolo[4,3-a]pyrazine-7-carbonyl)piperidin-1-yl)quinoline-3-carbonitrile], the IC50 came to 1.4 nM.

Compound `[2H]C([2H])([2H])Oc1ccc2c(N3CC[C@H](C(=O)N4CCn5c(nnc5C(F)(F)F)C4)[C@H](C)C3)c(C#N)cnc2c1` [Example 80, 7-[(^2H3)methyloxy]-4-[(3S,4S)-3-methyl-4-{[3-(trifluoromethyl)-5,6-dihydro[1,2,4]triazolo[4,3-a]pyrazin-7(8H)-yl]carbonyl}piperidin-1-yl]quinoline-3-carbonitrile] had an IC50 of 0.35 nM.

`CC1CN(c2c(C#N)cnc3c(C(F)F)cc(Cl)cc23)CCC1C(=O)N1CCn2c(nnc2C(F)(F)F)C1` (stereo not shown) [Example 58] gave an IC50 of 4.8 nM.

Regarding `C[C@@H]1CN(c2c(C#N)cnc3c(F)c(Cl)ccc23)CC[C@@H]1C(=O)N1CCn2c(nnc2C(F)(F)F)C1` [Example 1, 7-chloro-8-fluoro-4-[(3S,4S)-3-methyl-4-{[3-(trifluoromethyl)-5,6-dihydro[1,2,4]triazolo[4,3-a]pyrazin-7(8H)-yl]carbonyl}piperidin-1-yl]quinoline-3-carbonitrile], the IC50 was determined as 0.47 nM.

In turn, `C[C@@H]1CN(c2c(C#N)cnc3cc(-c4ccccc4)ccc23)CC[C@@H]1C(=O)N1CCn2c(nnc2C(F)(F)F)C1` [Example 90, 4-((3S,4S)-3-methyl-4-(3-(trifluoromethyl)-5,6,7,8-tetrahydro-[1,2,4]triazolo[4,3-a]pyrazine-7-carbonyl)piperidin-1-yl)-7-phenylquinoline-3-carbonitrile] showed an IC50 of 0.2 nM.

Compound `C[C@@H]1CN(c2c(C#N)cnc3c(F)cc(C(F)F)cc23)CC[C@@H]1C(=O)N1CCn2c(nnc2C(F)(F)F)C1` [Example 88, 6-(difluoromethyl)-8-fluoro-4-((3S,4S)-3-methyl-4-(3-(trifluoromethyl)-5,6,7,8-tetrahydro-[1,2,4]triazolo[4,3-a]pyrazine-7-carbonyl)piperidin-1-yl)quinoline-3-carbonitrile] returned an IC50 of 0.7 nM.

In the case of `C[C@@H]1CN(c2c(C#N)cnc3cc(OC4CC4)ccc23)CC[C@@H]1C(=O)N1CCn2c(nnc2C(F)(F)F)C1` [Example 38, 7-(cyclopropyloxy)-4-[(3S,4S)-3-methyl-4-{[3-(trifluoromethyl)-5,6-dihydro[1,2,4]triazolo[4,3-a]pyrazin-7(8H)-yl]carbonyl}piperidin-1-yl]quinoline-3-carbonitrile], the IC50 stood at 0.3 nM.

Compound `Cc1nc2ccc(Cl)cc2c(N2CC[C@H](C(=O)N3CCn4c(nnc4C(F)(F)F)C3)[C@H](C)C2)c1C#N` [Example 122, 6-chloro-2-methyl-4-((3S,4S)-3-methyl-4-(3-(trifluoromethyl)-5,6,7,8-tetrahydro-[1,2,4]triazolo[4,3-a]pyrazine-7-carbonyl)piperidin-1-yl)quinoline-3-carbonitrile] registered an IC50 of 0.5 nM.

`C[C@@H]1CN(c2c(C#N)cnc3cc(OCC4CC4)ccc23)CC[C@@H]1C(=O)N1CCn2c(nnc2C(F)(F)F)C1` [Example 100, 7-(cyclopropylmethoxy)-4-[(3S,4S)-3-methyl-4-{[3-(trifluoromethyl)-5,6-dihydro[1,2,4]triazolo[4,3-a]pyrazin-7(8H)-yl]carbonyl}piperidin-1-yl]quinoline-3-carbonitrile] displayed an IC50 of 0.35 nM.

As to `CCc1nnc2n1CCN(C(=O)C1CCN(c3c(C#N)cnc4ccc(Cl)cc34)CC1)C2` [Example 106, 6-chloro-4-{4-[(3-ethyl-5,6-dihydro[1,2,4]triazolo[4,3-a]pyrazin-7(8H)-yl)carbonyl]piperidin-1-yl}quinoline-3-carbonitrile], the IC50 turned out to be 8.1 nM.

`CC(C)COc1ccc2c(N3CCC(C(=O)N4CCn5c(nnc5C(F)(F)F)C4)CC3)c(C#N)cnc2c1` [Example 69] yielded an IC50 of 0.42 nM.

The compound `CCc1ncc2n1CCN(C(=O)C1CCN(c3c(C#N)cnc4ccc(Cl)cc34)CC1)C2` [Example 114, 6-chloro-4-{4-[(3-ethyl-5,6-dihydroimidazo[1,5-a]pyrazin-7(8H)-yl)carbonyl]piperidin-1-yl}quinoline-3-carbonitrile] came in with an IC50 of 1220 nM.

Take `C[C@@H]1CN(c2c(C#N)cnc3cc(Cl)ccc23)CC[C@@H]1C(=O)N1CCn2c(nnc2C(F)(F)F)C1` [Example 27, 7-chloro-4-[(3S,4S)-3-methyl-4-{[3-(trifluoromethyl)-5,6-dihydro[1,2,4]triazolo[4,3-a]pyrazin-7(8H)-yl]carbonyl}piperidin-1-yl]quinoline-3-carbonitrile]: half-maximal inhibition (IC50) required 0.74 nM.

For the compound `Cc1nc2ccc(Cl)cc2c(N2CC[C@H](C(=O)N3CCn4cccc4C3)[C@H](C)C2)c1C#N` [Example 91, 6-chloro-4-[(3S,4S)-4-(3,4-dihydropyrrolo[1,2-a]pyrazin-2(1H)-ylcarbonyl)-3-methylpiperidin-1-yl]-2-methylquinoline-3-carbonitrile], it took 5.8 nM to reach half-maximal inhibition (IC50).

`C[C@@H]1CN(c2c(C#N)cnc3c(F)c(C(F)(F)F)ccc23)CC[C@@H]1C(=O)N1CCn2c(nnc2C(F)(F)F)C1` [Example 17, 8-fluoro-4-[(3S,4S)-3-methyl-4-{[3-(trifluoromethyl)-5,6-dihydro[1,2,4]triazolo[4,3-a]pyrazin-7(8H)-yl]carbonyl}piperidin-1-yl]-7-(trifluoromethyl)quinoline-3-carbonitrile] returned an IC50 of 0.36 nM.

In the case of `Cc1nc2ccc(Cl)cc2c(N2CC[C@H](C(=O)N3CCc4sc(C(F)(F)F)nc4C3)[C@H](C)C2)c1C#N` [Example 98, 6-chloro-2-methyl-4-[(3S,4S)-3-methyl-4-{[2-(trifluoromethyl)-6,7-dihydro[1,3]thiazolo[4,5-c]pyridin-5(4H)-yl]carbonyl}piperidin-1-yl]quinoline-3-carbonitrile], half-maximal inhibition (IC50) was put at 19 nM.

In turn, `C[C@@H]1CN(c2c(C#N)cnc3cc(C(F)(F)F)ccc23)CC[C@@H]1C(=O)N1CCn2c(nnc2C(F)(F)F)C1` [Example 16, 4-[(3S,4S)-3-methyl-4-{[3-(trifluoromethyl)-5,6-dihydro[1,2,4]triazolo[4,3-a]pyrazin-7(8H)-yl]carbonyl}piperidin-1-yl]-7-(trifluoromethyl)quinoline-3-carbonitrile] registered an IC50 of 0.38 nM.

For `COc1cc(Cl)cc2c(N3CC[C@H](C(=O)N4CCn5c(nnc5C(F)(F)F)C4)[C@H](C)C3)c(C#N)cnc12` [Example 18, 6-chloro-8-methoxy-4-[(3S,4S)-3-methyl-4-{[3-(trifluoromethyl)-5,6-dihydro[1,2,4]triazolo[4,3-a]pyrazin-7(8H)-yl]carbonyl}piperidin-1-yl]quinoline-3-carbonitrile], the IC50 stood at 0.53 nM.

Regarding `Cc1nc2ccc(Cl)cc2c(N2CC[C@H](C(=O)N3CCn4cc(C(F)(F)F)nc4C3)[C@H](C)C2)c1C#N` [Example 99, 6-chloro-2-methyl-4-[(3S,4S)-3-methyl-4-{[2-(trifluoromethyl)-5,6-dihydroimidazo[1,2-a]pyrazin-7(8H)-yl]carbonyl}piperidin-1-yl]quinoline-3-carbonitrile], the IC50 amounted to 52 nM.

For `N#Cc1cnc2ccc(Cl)cc2c1N1CCC(C(=O)N2CCc3c(C(F)(F)F)n[nH]c3C2)CC1` [Example 111, 6-chloro-4-(4-{[3-(trfluoromethyl)-1,4,5,7-tetrahydro-6H-pyrazolo[3,4-c]pyridin-6-yl]carbonyl}piperidin-1-yl)quinoline-3-carbonitrile], half-maximal inhibition (IC50) was put at 90 nM.

Regarding `C[C@@H]1CN(c2c(C#N)cnc3nc(C(F)(F)F)ccc23)CC[C@@H]1C(=O)N1CCn2c(nnc2C(F)(F)F)C1` [Example 21, 4-[(3S,4S)-3-methyl-4-{[3-(trifluoromethyl)-5,6-dihydro[1,2,4]triazolo[4,3-a]pyrazin-7(8H)-yl]carbonyl}piperidin-1-yl]-7-(trifluoromethyl)-1,8-naphthyridine-3-carbonitrile], it took 4.81 nM to reach half-maximal inhibition (IC50).
